Source: patent US20220168301A1, “METHODS FOR TREATING SYMPTOMATIC ORTHOSTATIC HYPOTENSION” (Cerecor Inc, priority 2019, published 2022)
Read-outs that look alike come from different tables or passages of the source.

Key:
[1] = Plasma pharmacokinetics of CERC-301, single and 7-day repeated dose, healthy subjects; type: in vivo, human; details: for half-life: read-out: Average t1/2; for Tmax: read-out: Median tmax
Method: (§1) The study was a randomized, double-blind, placebo-controlled parallel-group, three-part, repeated dose in-patient study investigating the safety, tolerability, PK, and PD of CERC-301 in healthy subjects.
(§2) Subjects received 8, 12, 16 or 20 mg CERC-301 or matching placebo once-daily for 7 days.
PK endpoints included the following determined from plasma CERC-301 concentration data: • Day 1 parameters include Cmax, Tmax, AUC0-24, AUC0-inf, AUC%extrap, CL/F, Vz/F, and t1/2 • Day 7 parameters include Cmax, Tmax, AUC0-24, AUC0-inf, AUC%extrap, CL/F, Vss/F, t1/2, and Cavg • Trough concentrations will be reported for Days 2-8 • Accumulation after 7-days of dosing will be investigated by calculating: • Observed Accumulation Ratio: AUCo-24 (Day 7)/AUC0-24 (Day 1) • Steady State Accumulation Ratio: AUC0-24 (Day 7)/AUC0-int (Day 1) • Cmax ratio: Cmax (Day 7)/Cmax (Day 1)
Pharmacokinetic parameters were determined for CERC-301 using noncompartmental methods based on plasma CERC-301 concentration data following the first and last dose of CERC-301. […] Mean plasma CERC-301 concentrations on Day 7 were approximately 20% to 40% higher from 2 to 24 hours postdose in the intermediate age and elderly subgroups, respectively, compared to the young age subgroup, and were approximately 20% higher from 2 to 24 hours postdose in female subjects compared to male subjects.

[2] = monkeys, cited from earlier work
[3] = tested on: patients with moderate Parkinson's disease; details: single oral dose 7 mg; cited from earlier work
[4] = tested on: healthy subjects; experiment: 24-hour ambulatory blood pressure monitoring (ABPM), 7-day once-daily dosing study in healthy subjects; type: in vivo, human
Method: The effects of CERC-301 were assessed in a randomized, double-blind, placebo-controlled, parallel-group, three-part safety, pharmacokinetic, and pharmacodynamic study in healthy human subjects.
One of the primary objective of the study was to investigative the dose-response relationship between CERC-301 and pharmacodynamic (PD) effects on blood pressure [BP] in healthy subjects. Secondary objectives included the investigation of the safety and tolerability of CERC-301 over 7 days of once-daily administration and the investigation of a single dose and 7-day repeated dose pharmacokinetic (PK) profiles of CERC-301, and to explore sub-group (age or gender) effects on other safety parameters, such as adverse events (AEs).
as §1
Part 1: After the screening period, healthy, young male and female subjects were randomly assigned to dose groups as shown in Table 1. Randomized subjects participated in a time-matched baseline BP monitoring day (Day −1), once-daily dosing with study drug during which safety, PK, and PD assessments were performed on Days 1-7, discharge on Day 8, a follow-up period for PK and safety on Days 9-11, and end-of-study visit on Day 16. Each parallel dose group was balanced for gender (approximately equal number of males and females in each group).
Part 2: After the screening period, healthy, young and intermediate age male and female subjects were randomly assigned to dose groups as shown in Table 2. Randomized subjects participated in a time-matched baseline BP monitoring day (Day −1), once-daily dosing with study drug during which safety, PK, and PD assessments were performed on Days 1-7, discharge on Day 8, a follow-up period for PK and safety on Days 9-11, and end-of-study visit on Day 16. Each parallel dose group was balanced for gender (approximately equal number of males and females in each group).
Part 3: After the screening period, healthy, young and elderly male and female subjects were randomly assigned to dose groups as shown in Table 3.
Randomized subjects participated in a time-matched baseline BP monitoring day (Day −1), once-daily dosing with study drug during which safety, PK, and PD assessments were performed on Days 1-7, discharge on Day 8, a follow-up period for PK and safety on Days 9-11, and end-of-study visit on Day 16. Each parallel dose group was balanced for gender (approximately equal number of males and females in each group).
as §2
PD endpoints included the following […]: • 24-hour Ambulatory Blood Pressure Monitoring (ABPM) • Observed values and time matched change from baseline (pre-dose) of 24-hour ABPM • Mean 24 hours, Sleep and Awake systolic and diastolic BPs. • Mean Arterial Pressure (MAP), pulse pressure, and heart rate. • Observed values and change from baseline of sub-scale scores and Total Mood Disturbance (TMD) scores from Profiles of Mood States (POMS)

[5] = 20 mg, 24 hours postdose, after 7 days of dosing

Cc1ccc(COC(=O)N2CC[C@H](CNc3ncccn3)[C@H](F)C2)cc1 [CERC-301]
Plasma CERC-301 concentrations increase with dose ([1]; 8 to 20 mg, steady-state daily dosing): approximately dose proportional
Apparent oral clearance, lower in female subjects compared to male subjects ([1]; Day 7): approximately 15%
Apparent oral clearance, lower in intermediate age group compared to young age group ([1]; Day 7): approximately 18%
Average Cmax, higher in intermediate age and elderly subgroups compared to young age group ([1]; Day 7): approximately 30%
Average t1/2, higher in elderly age group compared to young age group ([1]; Day 7): ~38%
Average t1/2, higher in female subjects compared to male subjects ([1]; Day 7): approximately 16%
Average t1/2, higher in intermediate age group compared to young age group ([1]; Day 7): approximately 27%
Mean plasma CERC-301 concentrations, higher in elderly subgroup compared to young age subgroup ([1]; Day 7, 2 to 24 hours postdose): ~40%
Mean plasma CERC-301 concentrations, higher in female subjects compared to male subjects ([1]; Day 7, 2 to 24 hours postdose): approximately 20%
Mean plasma CERC-301 concentrations, higher in intermediate age subgroup compared to young age subgroup ([1]; Day 7, 2 to 24 hours postdose): approximately 20%
Cmax and AUC increase with dose ([1]; Days 1 and 7, 8 to 20 mg): approximately dose-proportional
half-life ([1]; both sexes, human, plasma, oral, male and female subjects, Day 7): 21 to 24 h
Tmax ([1]; both sexes, human, plasma, oral, male and female subjects): 1.75 to 2 h
Average Day 7 to Day 1 Cmax ratio ([1]; elderly age group): 1.53
Mean observed accumulation index ([1]; elderly age group): 2.12
Mean steady state accumulation index ([1]; elderly age group): 1.30
Average apparent volume of distribution ([1]; elderly age subgroup, Day 7): 111 L
Average Day 7 to Day 1 Cmax ratio ([1]; females): 1.38
Mean observed accumulation index ([1]; females): 1.88
Mean steady state accumulation index ([1]; females): 1.10
Average apparent volume of distribution ([1]; females, Day 7): 105 L
Oral bioavailability ([1]; human, in vivo, po): orally bioavailable
Tmax ([1]; human, plasma, oral, Day 1, 8 to 20 mg): 2 to 3 h
Tmax ([1]; human, plasma, oral, Day 7, 8 to 20 mg): 1.5 to 3 h
Tmax ([1]; human, plasma, oral, young subjects, Days 1 and 7, 8 to 20 mg): 1.5 to 3 h
half-life ([1]; human, plasma, oral, young, intermediate age and elderly subgroups, Day 7): 20 to 28 h
Tmax ([1]; human, plasma, oral, young, intermediate age and elderly subgroups): 1.5 to 2.5 h
Vd ([1]; human, plasma, oral, young subjects, Day 7, 8 to 20 mg, read-out: Average apparent volume of distribution): 83 to 115 L
half-life ([1]; human, plasma, oral, young subjects, Day 7, 8 to 20 mg): 17 to 21 h
Average Day 7 to Day 1 Cmax ratio ([1]; intermediate age group): 1.41
Mean observed accumulation index ([1]; intermediate age group): 1.92
Mean steady state accumulation index ([1]; intermediate age group): 1.13
Average apparent volume of distribution ([1]; intermediate age subgroup, Day 7): 121 L
Average Day 7 to Day 1 Cmax ratio ([1]; males): 1.36
Mean observed accumulation index ([1]; males): 1.72
Mean steady state accumulation index ([1]; males): 1.15
Average apparent volume of distribution ([1]; males, Day 7): 108 L
Steady-state predose plasma CERC-301 concentrations achieved ([1]; repeated daily doses): by study day 5 or 6
Average Day 7 to Day 1 Cmax ratio ([1]; young age group): 1.15
Mean observed accumulation index ([1]; young age group): 1.65
Mean steady state accumulation index ([1]; young age group): 1.01
Average apparent volume of distribution ([1]; young age subgroup, Day 7): 115 L
Steady-state accumulation index (AUC0-24 Day 7/AUC0-inf Day 1) ([1]; young subjects, on average): 1.1
Excretion [2]: excreted exclusively as metabolites via both the biliary and renal routes
Metabolism [2]: highly metabolized via multiple cytochrome P450 (CYP450) enzymes
Absorption ([2]; oral administration): rapidly absorbed after oral administration
Plasma concentration relative to target [3]: > 400 nM
Systolic and diastolic blood pressure relative to placebo [3]: increases in systolic and diastolic blood pressure relative to placebo
Tolerability [3]: generally well tolerated
Average nighttime SBP increase ([4]; 16 mg, Day 7): 2 mm Hg
Mean hourly average DBP change from baseline [4, 5]: approximately 10 mm Hg
Mean hourly average SBP change from baseline [4, 5]: approximately 14 mm Hg
Maximum average hourly daytime ambulatory DBP ([4]; 20 mg, Day 1): approximately 15 mm Hg
Maximum average hourly daytime ambulatory SBP ([4]; 20 mg, Day 1): approximately 16 mm Hg
Maximum average hourly daytime ambulatory DBP ([4]; 20 mg, Day 4): approximately 15 mm Hg
Maximum average hourly daytime ambulatory SBP ([4]; 20 mg, Day 4): ~21 mm Hg
Maximum average hourly daytime ambulatory DBP ([4]; 20 mg, Day 7): ~19 mm Hg
Maximum average hourly daytime ambulatory SBP ([4]; 20 mg, Day 7): ~24 mm Hg
